We go through 7 compounds from patent US20090088449A1, “4-ACYLAMINOPYRIDINE DERIVATIVE MEDIATED NEUROGENESIS” (MITSUBISHI TANABE PHARMA CORPORATION, priority 2006, published 2009).

Data set [1] deals with Human Neural Stem Cells. The data set is described as follows: MKC-231 in combination with an AMPA agonist, neuronal differentiation of human neural stem cells. It is filed as cell-based. The note with it: for EC50: Homo sapiens, Neural stem cell. How it is done:
FIG. 4 is a dose-response curve showing enhancement of the effects of the agent MKC-231 on neuronal differentiation by combination with an AMPA agonist (AMPA). Data is presented as the percentage of the neuronal positive control, with basal media values subtracted.
FIG. 6 is the average does response curve of multiple experiments (N=6) showing enhancement of the effects of the agent MKC-231 on neuronal differentiation by combination with affixed concentration of AMPA agonist (0.32 μM AMPA). […] Data is presented as the percentage of the neuronal positive control, with basal media values subtracted.
Experiments with various concentrations of MKC-231 alone or with 0.316 μM of an AMPA agonist (AMPA) were carried out generally as described in Example 1 for neuronal differentiation. […] The data also indicate that MKC-231 apparently exerts some of its neurogenic effect as an AMPA potentiator or sensitizer. Also see FIG. 6 relating to BCI-540 in combination with AMPA and neuronal differentiation.

Data set [2] concerns Human Neural Stem Cells. Description: Toxic/trophic effect on human neural stem cells (Hoechst 33342 cell count). It counts as cell-based. The note with it: concentrations up to 31.6 μM. How it is done: Experiments were carried out as described in Example 1, except that the cells were stained with a nuclear dye (Hoechst 33342).
The data therein is shown as a percentage of the basal media cell count. Concentrations that are toxic fall below 80% of the basal cell count. Trophic compounds show dose dependent increases in cell count.

For data set [3], the system named is male F344 rats. The data set is described as follows: Hippocampal neurogenesis in rat (BrdU). It is filed as in vivo. How it is done:
BCI-540 was administered to male F344 rats by oral gavage once daily for 28 days (1.0 and 4.0 mg/kg/day, p.o.). BrdU was administered once daily for 5 days (days 9 to 14, 100 mg/kg/day, i.p.). Animals were sacrificed on day 28. Brains were removed and processed for evaluation of neurogenesis.
The y-axis represents percent change compared to vehicle control. The x-axis indicates treatment with vehicle set to 100% (black bar) and BCI-540 dosed at 1.0 and 4.0 mg/kg/day (black hatched bars). The black line indicates 100% of vehicle control.

The subject of data set [4] is Human Neural Stem Cells. The data set is described as follows: MKC-231 in combination with an AMPA antagonist (NBQX), neuronal differentiation of human neural stem cells. It is filed as cell-based. The protocol:
FIG. 7 is a dose-response curve showing inhibition of the effects of the agent MKC-231 on neuronal differentiation by combination with an AMPA antagonist (NBQX). Data is presented as the percentage of the neuronal positive control, with basal media values subtracted.
Experiments with various concentrations of MKC-231 alone or with 1.0 μM of an AMPA antagonist (NBQX) were carried out generally as described in Example 1 for neuronal differentiation. […] The data also indicate that MKC-231 exerts some of its neurogenic effect as through the AMPA receptor activation.

Another data set deals with male Sprague Dawley rats. Description: Elevated plus maze (animal model of anxiety). It is filed as in vivo, rat. How it is done:
BCI-540 was administered to male Sprague Dawley rats by oral gavage once daily for 21 days (1.0 mg/kg/day, p.o.). As a positive control, the anxiolytic diazepam (1.5 mg/kg, i.p.) was administered one time, 30 minutes prior to testing.
The y-axis represents percent time on the open arm. The x-axis indicates treatment with vehicle (black bar), positive control diazepam (gray bar), and BCI-540 treated animals (black hatched bars) (n=15/group).

For the next data set, the system named is hNSCs. Description: Astrocyte differentiation of hNSCs (GFAP staining). It counts as cell-based, human. How it is done:
Experiments were carried out as described in Example 1, except the positive control for astrocyte differentiation contained mitogen-free test media with positive control for astrocyte differentiation, and cells were stained with GFAP antibody.

Data set [5] concerns the target acetylcholinesterase (AChE) (Homo sapiens, UniProt P22303). The note with it: cited from earlier work.
Data set [6] concerns Human neural stem cells (hNSCs). Description: Neuronal differentiation of human neural stem cells (TUJ-1 staining). It is filed as cell-based. An excerpt: Human neural stem cells (hNSCs) were isolated and grown in monolayer culture, plated, treated with varying concentrations of MKC-231 (test compound), and stained with TUJ-1 antibody, as described in U.S. Provisional Application No. 60/697,905 (incorporated by reference). Mitogen-free test media with a positive control for neuronal differentiation was used along with basal media without growth factors as a negative control.
The dose response curve of the neuronal positive control is included as a reference. The data is presented as a percent of neuronal positive control.

The subject of data set [7] is male F344 rats. The data set is described as follows: Novelty suppressed feeding in rat. It is filed as in vivo. The settings on record: for change in latency to eat the food pellet: 21-day administration. The protocol:
BCI-540 was administered to male F344 rats by oral gavage once daily for 21 days (1.0 mg/kg/day, p.o.). Fluoxetine was administered by oral gavage once daily for 21 days (10 mg/kg/day, p.o.). BrdU was administered once daily for 5 days (days 9 to 14, 100 mg/kg/day, i.p.). Animals were tested after 21 days of drug administration.
Shown in FIG. 9 is the change in latency to eat compared to vehicle control (±SEM). The y-axis represents percent change compared to vehicle control. The x-axis indicates treatment. Vehicle is set to 100%. The black line indicates 100% of vehicle control.

For data set [8] the following is noted: cited from earlier work; for stability at room temperature and during storage: room temperature (about 25° C.), over time.
The mark [9] stands for this setting: 1.0 mg/kg daily p.o. for 21 days.

A value given as a limit tells only on which side of the number the result lay.

Chain of acetylcholinesterase (AChE) (P22303 32-614, species assumed): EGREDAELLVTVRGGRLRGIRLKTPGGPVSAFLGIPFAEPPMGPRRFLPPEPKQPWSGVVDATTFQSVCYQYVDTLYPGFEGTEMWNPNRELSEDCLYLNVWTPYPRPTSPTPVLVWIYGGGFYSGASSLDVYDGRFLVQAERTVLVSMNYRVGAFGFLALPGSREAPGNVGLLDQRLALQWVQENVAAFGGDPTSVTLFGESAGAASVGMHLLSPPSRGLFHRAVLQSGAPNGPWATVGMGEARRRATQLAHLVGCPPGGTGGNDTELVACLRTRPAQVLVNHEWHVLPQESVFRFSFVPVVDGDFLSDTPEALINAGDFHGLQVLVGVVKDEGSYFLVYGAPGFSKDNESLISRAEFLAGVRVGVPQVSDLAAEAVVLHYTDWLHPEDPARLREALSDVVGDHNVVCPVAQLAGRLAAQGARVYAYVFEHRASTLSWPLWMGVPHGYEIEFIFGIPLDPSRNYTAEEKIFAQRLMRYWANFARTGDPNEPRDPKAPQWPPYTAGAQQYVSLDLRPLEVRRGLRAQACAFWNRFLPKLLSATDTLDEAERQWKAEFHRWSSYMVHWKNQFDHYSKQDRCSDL

On to `Cc1oc2nc3c(c(NC(=O)CN4CCCC4=O)c2c1C)CCCC3` [MKC-231, 2-(2-oxypyrrolidin-1-yl)-N-(2,3-dimethyl-5,6,7,8-tetrahydrofuro(2,3-b)quinolin-4-yl)acetoamide], for which the EC50 was 0.22 µM with Human Neural Stem Cells [1] (read-out: EC50 neuronal differentiation, MKC-231 in the presence of a fixed concentration AMPA); 3.7 µM in the data set with Human Neural Stem Cells [1] (average of multiple experiments (N=6) (FIG. 6), read-out: EC50 neuronal differentiation, MKC-231 alone); 0.99 µM in the data set on Human Neural Stem Cells [1] (with 0.316 μM AMPA agonist (AMPA) (FIG. 4), read-out: EC50 neuronal differentiation, MKC-231 in combination with AMPA); above 31.6 µM in the data set with Human Neural Stem Cells [4] (Homo sapiens, Neural stem cell, with 1.0 μM NBQX (FIG. 7)); 5.1 µM in [6] (Homo sapiens, Neural stem cell, MKC-231 alone, percent of neuronal positive control, basal media subtracted (FIG. 1)). Moreover, the “toxicity (cell count below 80% of basal cell count)” value with Human Neural Stem Cells [2] is on record as “no toxicity”. Moreover, the “increase in new neurons within the granule cell layer of the dentate gyrus compared to vehicle control” value in the data set with male F344 rats [3] (1.0 mg/kg daily p.o. for 28 days) was found to be 22%; with male F344 rats [3] (4.0 mg/kg daily p.o. for 28 days), 20%. The “change in new neurons within the granule cell layer of the dentate gyrus” value in the data set on male F344 rats [3] (1.0 and 4.0 mg/kg daily for 28 days) is “statistically significant increase”. In addition, the “increase in the time spent on the open arms” value in the data set with male Sprague Dawley rats (setting [9]) is reported as 20%. Moreover, the “time spent on the open arms” value in the data set with male Sprague Dawley rats (chronic administration, 1.0 mg/kg/day p.o., 21 days) is “significant increase”. In addition, in the data set on hNSCs (FIG. 2), the “astrocyte differentiation above basal media values” was “no significant increase”. Moreover, in the data set on hNSCs (percent of astrocyte positive control, basal media subtracted (FIG. 2)), the EC50 astrocyte differentiation result was “undeterminable”. In addition, the AChE inhibitory activity result in [5] was “does not have such inhibitory activity”. Besides, the “neuronal differentiation above background levels” value in data set [6] (FIG. 1) is reported as “promoted neuronal differentiation above background levels”. Besides, the “decrease in latency to eat compared to vehicle control” value in the data set on male F344 rats [7] (setting [9]) amounted to 35%. For the same compound, the “change in latency to eat the food pellet” value with male F344 rats [7] is listed as “statistically significant decrease”.

In the case of `Cc1oc2nc3c(c(NC(=O)CC4CNC(=O)C4)c2c1C)CCCC3` (stereo not drawn) [form A crystal, N-(2,3-dimethyl-5,6,7,8-tetrahydrofuro[2,3-b]quinolin-4-yl)-2-(2-oxopyrrolidin-4-yl)acetamide], in [8], the “stability at room temperature and during storage” value is listed as “better stability”; the stability in storage result is recorded as “greater stability in storage than the form B crystal”.

As to `CNCCC(Oc1ccc(C(F)(F)F)cc1)c1ccccc1` (stereo not drawn) [fluoxetine, reference compound], the “decrease in latency to eat compared to vehicle control” value with male F344 rats [7] (10.0 mg/kg daily p.o. for 21 days) turned out to be 38%. Further, in the data set with male F344 rats [7], the “change in latency to eat the food pellet” value was “statistically significant decrease”.

Take `Cc1oc2nc3c(c(NC(=O)CC4CNC(=O)C4)c2c1C)CCCC3` (stereo not drawn) [form B crystal, N-(2,3-dimethyl-5,6,7,8-tetrahydrofuro[2,3-b]quinolin-4-yl)-2-(2-oxopyrrolidin-4-yl)acetamide]: in data set [8], the “stability at room temperature and during storage” value is given as “lower stability”; the stability in storage entry is listed as “lower stability in storage than the form A crystal”.

Regarding `CN1C(=O)CN=C(c2ccccc2)c2cc(Cl)ccc21` [diazepam, reference compound], in the data set with male Sprague Dawley rats (single administration, 1.5 mg/kg i.p., 30 minutes prior to testing), the “increase in time spent on the open arms” value came out at 12%.

As to `Cc1o[nH]c(=O)c1CC(N)C(=O)O` (stereo not drawn) [AMPA, reference compound], in the data set on Human Neural Stem Cells [1] (0.316 μM AMPA), the “effect of AMPA agonist on MKC-231 stimulated neuronal differentiation” value is recorded as “enhances the stimulation of neuronal differentiation”. In addition, the “neuronal differentiation by AMPA alone” value in the data set with Human Neural Stem Cells [1] (0.32 μM AMPA alone (FIG. 6)) was “does not promote neuronal differentiation alone”.

Regarding `NS(=O)(=O)c1cccc2c1c([N+](=O)[O-])cc1nc(O)c(O)nc12` [NBQX, reference compound], the “effect of AMPA antagonist on MKC-231 stimulated neuronal differentiation” value with Human Neural Stem Cells [4] (1.0 μM NBQX) is “inhibits the stimulation of neuronal differentiation”.
